Paper PMC9000735, “In Vitro Alpha-Glucosidase Inhibitory Activity and the Isolation of Luteolin from the Flower of Gymnanthemum amygdalinum (Delile) Sch. Bip ex Walp” (Molecules, 2022)
Like-named read-outs stand apart in the source and are kept apart here.

Key:
α-glucosidase = biological target: T1, α-glucosidase (Saccharomyces cerevisiae, UniProt P53341); test: biochemical; conditions: for IC50: mean ± SD, n = 3, linear regression
T1 construct: purchased Sigma-Aldrich G5003
Experimental: A specific spray reagent, citroborate (5 g citric acid, 5 g boric acid, and 100 mL ethanol), and 10% (v/v) H2SO4 in a MeOH solution were used to identify flavonoids and other compounds. Additionally, during extraction and separation, the entire solvents were distilled before use, making them of technical grade.
Alpha-glucosidase inhibition was assessed using the adopted method with slight modifications. Phosphate buffer solution (36 μL), a sample solution with different concentrations ([…]), and pNPG substrate with 6 mM concentration (17 μL) were successively added to 96 microplate wells. The incubation of this mixture was performed at 37 °C for 5 min. In each well, 17 μL of alpha-glucosidase solution at 0.2 U/mL was added to obtain a total volume of […], which was followed by incubation at 37 °C for 15 min. Furthermore, the initial reaction was brought to completion by the addition of Na2CO3 solution (100 μL) at 200 mM. […] Percentage inhibition was used to express the inhibitory activity of alpha-glucosidase, while the calculation followed the formula below:
Inhibition percentage (%) = (B1–B2)/B1 × 100%.
B1 = Blank absorbance * − control of blank absorbance **
B2 = Sample absorbance − control of sample absorbance ***
The IC50 was calculated using a linear regression equation (y = a + bx) in which the sample concentration was represented on the x-axis and the percentage inhibition was represented on the y-axis.

alpha-glucosidase = test system: alpha-glucosidase; set-up: method as in PMID 35215317; conditions: cited from earlier work

T1 sequence (P53341 whole entry): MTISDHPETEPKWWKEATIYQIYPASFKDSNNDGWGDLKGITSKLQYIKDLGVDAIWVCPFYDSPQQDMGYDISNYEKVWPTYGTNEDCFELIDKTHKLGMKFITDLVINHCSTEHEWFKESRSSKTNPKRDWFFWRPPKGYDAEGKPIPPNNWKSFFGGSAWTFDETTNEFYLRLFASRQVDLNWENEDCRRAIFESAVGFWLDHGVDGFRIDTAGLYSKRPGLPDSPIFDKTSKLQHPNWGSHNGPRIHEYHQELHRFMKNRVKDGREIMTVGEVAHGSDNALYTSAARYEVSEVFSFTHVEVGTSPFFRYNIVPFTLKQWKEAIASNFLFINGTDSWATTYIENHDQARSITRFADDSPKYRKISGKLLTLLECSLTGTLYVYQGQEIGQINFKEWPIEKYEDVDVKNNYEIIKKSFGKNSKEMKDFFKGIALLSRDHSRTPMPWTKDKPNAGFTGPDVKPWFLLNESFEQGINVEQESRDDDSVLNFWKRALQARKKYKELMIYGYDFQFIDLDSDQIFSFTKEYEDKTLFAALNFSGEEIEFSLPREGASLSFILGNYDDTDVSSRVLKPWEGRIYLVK

| Structure (SMILES) | inhibition at 100 µg/mL (α-glucosidase) [%] | inhibition at 200 µg/mL (α-glucosidase) [%] | inhibition at 100 µg/mL (α-glucosidase; read-out: Inhibition (in %)) [%] | inhibition at 200 µg/mL (α-glucosidase; read-out: Inhibition (in %)) [%] | IC50 (α-glucosidase) [µM] | inhibition mechanism type (alpha-glucosidase) |
| --- | --- | --- | --- | --- | --- | --- |
| C[C@H]1O[C@H](O[C@H]2[C@H](O)[C@@H](O)[C@@H](O[C@H]3[C@H](O)[C@@H](O)C(O)O[C@@H]3CO)O[C@@H]2CO)[C@H](O)[C@@H](O)[C@@H]1N[C@H]1C=C(CO)[C@@H](O)[C@H](O)[C@H]1O (stereo partly shown) [Acarbose, acarbose] | 42.13 ± 0.12 | 66 ± 1.11 | 43.1 ± 0.92 | 66.8 ± 2.11 | – | – |
| O=c1cc(-c2ccc(O)c(O)c2)oc2cc(O)cc(O)c12 [Compound 1, 2-(3,4-dihydroxyphenyl)-5,7-dihydroxy-4H-chromen-4-one] | – | – | – | – | 22.8 | non-competitive |
| COc1c(-c2ccc(O)c(O)c2)oc2cc(O)cc(O)c2c1=O [Compound 2, 2-(3,4-dihydroxyphenyl)-5,7-dihydroxy-3-methoxy-4H-chromen-4-one] | – | – | – | – | 126 | – |
